Results reported in patent publication US20260193271A1, “PAN-KRAS INHIBITOR COMPOUND” (ADLAI NORTYE BIOPHARMA CO., LTD., priority 2022, published 2026).

Experiments:
AsPC-1 (G12D) = assay: In vitro cell proliferation inhibition test (CellTiter-Glo), AsPC-1; format: cell-based; details: KRAS (p.G12D), 72 h co-incubation
Summary of the method: (§1)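 IC50 was derived by four-parameter fitting of normalized CellTiter-Glo signals. These were measured after 72 h co-incubation with compound at 10 concentrations, 3-fold serial, final maximum 10 μM. Plating was 1000-5000 cells/well, adjusted to growth rate, with overnight attachment at 37 °C, 5% CO2.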

SW480 (G12V) = assay: In vitro cell proliferation inhibition test (CellTiter-Glo), SW480; format: cell-based; details: SW480 colon cell line, KRAS (p.G12V), 72 h co-incubation
Summary of the method: as §1

| Molecule | IC50 (AsPC-1 (G12D); AsPC-1 pancreas cell line) [nM] | IC50 (SW480 (G12V)) [nM] | IC50 (AsPC-1 (G12D); Homo sapiens, ASPC1, AsPC-1 pancreas cell line) [nM] | IC50 (SW480 (G12V); Homo sapiens) [nM] |
| --- | --- | --- | --- | --- |
| CCn1c(-c2cc(-c3cnn(CC4CCCN4C)c3)cnc2C(C)OC)c2c3cc(ccc31)-c1csc(n1)CC(NC(=O)C1C(C)C1C)C(=O)N1CCCC(N1)C(=O)OCC(C)(C)C2 [Compound 62, (1r,2R,3S)-N-((6^3S,4S,Z)-1^1-ethyl-1^2-(2-((S)-1-methoxyethyl)-5-(1-(((R)-1-methylpyrrolidin-2-yl)methyl)-1H-pyrazol-4-yl)pyridin-3-yl)-10,10-dimethyl-5,7-dioxo-6^1,6^2,6^3,6^4,6^5,6^6-hexahydro-1^1H-8-oxa-2(4,2)-thiazola-1(5,3)-indola-6(1,3)-pyridazinacycloundecaphane-4-yl)-2,3-dimethylcyclopropane-1-carboxamide] | 0.54 | 3.9 | – | – |
| (1S,2S)-N-((6^3S,4S,Z)-1^1-ethyl-1^2-(2-((S)-1-methoxyethyl)-5-(1-((R)-1-methylpyrrolidin-3-yl)-1H-pyrazol-4-yl)pyridin-3-yl)-10,10-dimethyl-5,7-dioxo-6^1,6^2,6^3,6^4,6^5,6^6-hexahydro-1^1H-8-oxa-2(4,2)-thiazola-1(5,3)-indola-6(1,3)-pyridazinacycloundecaphane-4-yl)-2-methylcyclopropane-1-carboxamide [Compound 16′] | 2280 | 265 | – | – |
| (1S,2S)-N-((6^3S,4S,Z)-1^1-ethyl-1^2-(2-((S)-1-methoxyethyl)-5-(5-(morpholinomethyl)pyrimidin-2-yl)pyridin-3-yl)-10,10-dimethyl-5,7-dioxo-6^1,6^2,6^3,6^4,6^5,6^6-hexahydro-1^1H-8-oxa-2(4,2)-thiazola-1(5,3)-indola-6(1,3)-pyridazinacycloundecaphane-4-yl)-2-methylcyclopropane-1-carboxamide [Compound 14′] | 1180 | 633 | – | – |
| (1S,2S)-N-((6^3S,4S,Z)-1^1-ethyl-1^2-(6′-((S)-1-methoxyethyl)-4-(morpholinomethyl)-[2,3′-bipyridin]-5′-yl)-10,10-dimethyl-5,7-dioxo-6^1,6^2,6^3,6^4,6^5,6^6-hexahydro-1^1H-8-oxa-2(4,2)-thiazola-1(5,3)-indola-6(1,3)-pyridazinacycloundecaphane-4-yl)-2-methylcyclopropane-1-carboxamide [Compound 11′] | 242 | 346 | – | – |
| (1S,2S)-N-((6^3S,4S,Z)-1^1-ethyl-1^2-(6′-((S)-1-methoxyethyl)-5-(morpholinomethyl)-[2,3′-bipyridin]-5′-yl)-10,10-dimethyl-5,7-dioxo-6^1,6^2,6^3,6^4,6^5,6^6-hexahydro-1^1H-8-oxa-2(4,2)-thiazola-1(5,3)-indola-6(1,3)-pyridazinacycloundecaphane-4-yl)-2-methylcyclopropane-1-carboxamide [Compound 12′] | 814 | 319 | – | – |
| (1S,2S)-N-((6^3S,4S,Z)-1^1-ethyl-1^2-(6′-((S)-1-methoxyethyl)-6-(morpholinomethyl)-[2,3′-bipyridin]-5′-yl)-10,10-dimethyl-5,7-dioxo-6^1,6^2,6^3,6^4,6^5,6^6-hexahydro-1^1H-8-oxa-2(4,2)-thiazola-1(5,3)-indola-6(1,3)-pyridazinacycloundecaphane-4-yl)-2-methylcyclopropane-1-carboxamide [Compound 13′] | 302 | 236 | – | – |
| (1r,2R,3S)-N-((6^3S,4S,Z)-1^1-ethyl-1^2-(2-((S)-1-methoxyethyl)-5-(1-(1-methylazetidin-3-yl)-1H-pyrazol-4-yl)pyridin-3-yl)-10,10-dimethyl-5,7-dioxo-6^1,6^2,6^3,6^4,6^5,6^6-hexahydro-1^1H-8-oxa-2(4,2)-thiazola-1(5,3)-indola-6(1,3)-pyridazinacycloundecaphane-4-yl)-2,3-dimethylcyclopropane-1-carboxamide [Compound 17′] | 697 | 85 | – | – |
| (1r,2R,3S)-N-((6^3S,4S,Z)-1^1-ethyl-1^2-(2-((S)-1-methoxyethyl)-5-(1-(2-(4-methylpiperazin-1-yl)ethyl)-1H-pyrazol-4-yl)pyridin-3-yl)-10,10-dimethyl-5,7-dioxo-6^1,6^2,6^3,6^4,6^5,6^6-hexahydro-1^1H-8-oxa-2(4,2)-thiazola-1(5,3)-indola-6(1,3)-pyridazinacycloundecaphane-4-yl)-2,3-dimethylcyclopropane-1-carboxamide [Compound 19′] | 33 | 16 | – | – |

The remaining lines, values ahead:

| IC50 (AsPC-1 (G12D); AsPC-1 pancreas cell line) [nM] | IC50 (SW480 (G12V)) [nM] | IC50 (AsPC-1 (G12D); Homo sapiens, ASPC1, AsPC-1 pancreas cell line) [nM] | IC50 (SW480 (G12V); Homo sapiens) [nM] | Molecule |
| --- | --- | --- | --- | --- |
| > 10000 | 161 | – | – | CCn1c(-c2cc(-c3cc(CN4CCOCC4)on3)cnc2C(C)OC)c2c3cc(ccc31)-c1csc(n1)CC(NC(=O)C1CC1C)C(=O)N1CCCC(N1)C(=O)OCC(C)(C)C2 [Compound 22′, (1S,2S)-N-((6^3S,4S,Z)-1^1-ethyl-1^2-(2-((S)-1-methoxyethyl)-5-(5-(morpholinomethyl)isoxazol-3-yl)pyridin-3-yl)-10,10-dimethyl-5,7-dioxo-6^1,6^2,6^3,6^4,6^5,6^6-hexahydro-1^1H-8-oxa-2(4,2)-thiazola-1(5,3)-indola-6(1,3)-pyridazinacycloundecaphane-4-yl)-2-methylcyclopropane-1-carboxamide] |
| 2370 | 1340 | – | – | CCn1c(-c2cc(-c3cc(CNC)on3)cnc2C(C)OC)c2c3cc(ccc31)-c1csc(n1)CC(NC(=O)C1CC1C)C(=O)N1CCCC(N1)C(=O)OCC(C)(C)C2 [Compound 23′, (1S,2S)-N-((6^3S,4S,Z)-1^1-ethyl-1^2-(2-((S)-1-methoxyethyl)-5-(5-((methylamino)methyl)isoxazol-3-yl)pyridin-3-yl)-10,10-dimethyl-5,7-dioxo-6^1,6^2,6^3,6^4,6^5,6^6-hexahydro-1^1H-8-oxa-2(4,2)-thiazola-1(5,3)-indola-6(1,3)-pyridazinacycloundecaphane-4-yl)-2-methylcyclopropane-1-carboxamide] |
| > 10000 | 3610 | – | – | CCn1c(-c2cc(-c3cc(C4CCCN4C)on3)cnc2C(C)OC)c2c3cc(ccc31)-c1csc(n1)CC(NC(=O)C1CC1C)C(=O)N1CCCC(N1)C(=O)OCC(C)(C)C2 [Compound 24′, (1S,2S)-N-((6^3S,4S,Z)-1^1-ethyl-1^2-(2-((S)-1-methoxyethyl)-5-(5-((R)-1-methylpyrrolidin-2-yl)isoxazol-3-yl)pyridin-3-yl)-10,10-dimethyl-5,7-dioxo-6^1,6^2,6^3,6^4,6^5,6^6-hexahydro-1^1H-8-oxa-2(4,2)-thiazola-1(5,3)-indola-6(1,3)-pyridazinacycloundecaphane-4-yl)-2-methylcyclopropane-1-carboxamide] |
| 3420 | > 10000 | – | – | CCn1c(-c2cc(-c3cc([C@@H]4CCCN4C)on3)cnc2[C@H](C)OC)c2c3cc(ccc31)-c1csc(n1)C[C@H](NC(=O)[C@H]1C[C@@H]1C)C(=O)N1CCC[C@H](N1)C(=O)OCC(C)(C)C2 [Compound 25′, (1S,2S)-N-((6^3S,4S,Z)-1^1-ethyl-1^2-(2-((S)-1-methoxyethyl)-5-(5-((S)-1-methylpyrrolidin-2-yl)isoxazol-3-yl)pyridin-3-yl)-10,10-dimethyl-5,7-dioxo-6^1,6^2,6^3,6^4,6^5,6^6-hexahydro-1^1H-8-oxa-2(4,2)-thiazola-1(5,3)-indola-6(1,3)-pyridazinacycloundecaphane-4-yl)-2-methylcyclopropane-1-carboxamide] |
| 7.7 | 50 | – | – | CCn1c(-c2cc(-c3cc(C4CN(C)CCO4)on3)cnc2C(C)OC)c2c3cc(ccc31)-c1csc(n1)CC(NC(=O)C1C(C)C1C)C(=O)N1CCCC(N1)C(=O)OCC(C)(C)C2 [Compound 27′, (1r,2R,3S)-N-((6^3S,4S,Z)-1^1-ethyl-1^2-(2-((S)-1-methoxyethyl)-5-(5-((S)-4-methylmorpholin-2-yl)isoxazol-3-yl)pyridin-3-yl)-10,10-dimethyl-5,7-dioxo-6^1,6^2,6^3,6^4,6^5,6^6-hexahydro-1^1H-8-oxa-2(4,2)-thiazola-1(5,3)-indola-6(1,3)-pyridazinacycloundecaphane-4-yl)-2,3-dimethylcyclopropane-1-carboxamide] |
| 5.3 | 11.4 | – | – | CCn1c(-c2cc(-c3cc(C4CCN(C)C4)on3)cnc2C(C)OC)c2c3cc(ccc31)-c1csc(n1)CC(NC(=O)C1C(C)C1C)C(=O)N1CCCC(N1)C(=O)OCC(C)(C)C2 [Compound 29′, (1r,2R,3S)-N-((6^3S,4S,Z)-1^1-ethyl-1^2-(2-((S)-1-methoxyethyl)-5-(5-((R)-1-methylpyrrolidin-3-yl)isoxazol-3-yl)pyridin-3-yl)-10,10-dimethyl-5,7-dioxo-6^1,6^2,6^3,6^4,6^5,6^6-hexahydro-1^1H-8-oxa-2(4,2)-thiazola-1(5,3)-indola-6(1,3)-pyridazinacycloundecaphane-4-yl)-2,3-dimethylcyclopropane-1-carboxamide] |
| – | – | 12 | 150 | CCn1c(-c2cc(-c3cn(CC4CCN(C)CC4)nn3)cnc2C(C)OC)c2c3cc(ccc31)-c1csc(n1)C[C@H](NC(=O)[C@H]1C[C@@H]1C)C(=O)N1CCC[C@H](N1)C(=O)OCC(C)(C)C2 (stereo partly drawn) [Compound 65, (1S,2S)-N-((6^3S,4S,Z)-1^1-ethyl-1^2-(2-((S)-1-methoxyethyl)-5-(1-((1-methylpiperidin-4-yl)methyl)-1H-1,2,3-triazol-4-yl)pyridin-3-yl)-10,10-dimethyl-5,7-dioxo-6^1,6^2,6^3,6^4,6^5,6^6-hexahydro-1^1H-8-oxa-2(4,2)-thiazola-1(5,3)-indola-6(1,3)-pyridazinacycloundecaphane-4-yl)-2-methylcyclopropane-1-carboxamide] |
| 0.54 | 0.51 | – | – | (1r,2R,3S)-N-((63S,4S,Z)-1^1-(2,2-difluoroethyl)-1^2-(2-((S)-1-methoxyethyl)-5-(2-(morpholinomethyl)pyrimidin-5-yl)pyridin-3-yl)-10,10-dimethyl-5,7-dioxo-6^1,6^2,6^3,6^4,6^5,6^6-hexahydro-1^1H-8-oxa-2(4,2)-thiazola-1(5,3)-indola-6(1,3)-pyridazinacycloundecaphane-4-yl)-2,3-dimethylcyclopropane-1-carboxamide [Compound 48] |
